Data as given in the supplement of paper PMC10949913.

What was measured:
Conditions in all cases: 48 h
NCI-H295R [1] = experiment: AC50 viability; higher = less potent
Outline: (§1)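 Cells from three adrenocortical carcinoma lines were seeded at 500–1,000 cells/well in 5 µL medium in 1,536-well plates. Each library compound was added as 23 nL at 11 concentrations, and after 48 h CellTiter-Glo was added for 15 minutes at room temperature before reading luminescence. Plate-wise normalisation to vehicle and empty-well controls preceded curve fitting. AC50 and area under the curve were calculated only for inhibitory or non-responding curve classes.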

CU-ACC1 [2] = experiment: AC50 viability; higher = less potent
Outline: as §1

NCI-H295R [3] = experiment: area under concentration-response curve (viability) (AUC (a.u.)); higher = less active
Outline: as §1

CU-ACC1 [4] = experiment: as above
Outline: as §1

CU-ACC2 = experiment: as above
Outline: as §1

| SMILES | AC50 viability (NCI-H295R [1]) [µM] | AC50 viability (CU-ACC1 [2]) [µM] | area under concentration-response curve (NCI-H295R [3]) | area under concentration-response curve (CU-ACC1 [4]) | area under concentration-response curve (CU-ACC2) |
| --- | --- | --- | --- | --- | --- |
| Cc1c(C(=O)Nc2ccc(N3C[C@@H](C)O[C@@H](C)C3)nc2)cccc1-c1ccc(OC(F)(F)F)cc1 | 20.9 | 18.6 | 572 | 519 | – |
| COC1=CC2=C(C=C1OC)[C@H]3[C@@H](CO2)OC4=C(C=CC5=C4\C=C/C(C)(C)O5)C3=O | 16.6 | 0.372 | 510 | 342 | – |
| C/C(=C\C(=O)Nc1ccccc1C(=O)O)c1ccc2ccccc2c1 | 18.6 | 7.42 | 449 | 451 | – |
| C[S+](=O)([O-])c1ccc([C@@H](CC2CCCC2)C(=O)Nc2nccs2)cc1 | 16.6 | 18.6 | 393 | 379 | – |
| Cc1ccc(F)c(NC(=O)Nc2ccc(-c3cccc4[nH]nc(N)c34)cc2)c1 | 26.3 | 18.6 | 506 | 497 | – |
| O=C(NC[C@H](O)CO)c1ccncc1Nc1ccc(I)cc1F | – | 11.8 | 537 | 397 | 506 |
| CC(C)CC(=O)Nc1n[nH]c2c1CN(C(=O)C1CCN(C)CC1)C2(C)C | – | 16.6 | 562 | 514 | 574 |
| CC(C)Oc1ccc(C(=O)N[C@H](CNC(=O)CN(C)C)Cc2ccc(-c3cn4cccc([C@H](C)O)c4n3)cc2)cc1Cl | 13.2 | 16.6 | 427 | 424 | – |
| FC(F)(F)C1=CC=C2C(SCCCCCO\C3=C\O\C(CN4CCOCC4)=C/C3=O)=CC=NC2=C1 | 18.6 | 8.33 | 324 | 295 | – |
| N=C(N)Nc1ccc(C(=O)Oc2ccc3cc(C(=N)N)ccc3c2)cc1 | – | 33.2 | 532 | 460 | 585 |
| CN(NC(=O)CC(=O)NN(C)C(=S)c1ccccc1)C(=S)c1ccccc1 | – | 3.72 | 521 | 402 | 567 |
| C=CC(=O)N1CCC(C2CCNc3c(C(N)=O)c(-c4ccc(Oc5ccccc5)cc4)nn32)CC1 (stereo not drawn) | – | 16.6 | 553 | 492 | 614 |
| Cc1c[nH]c(/C=C2\C(=O)Nc3ccccc32)c1CCC(=O)O | – | 0.0105 | 381 | 428 | 353 |
| Cc1ccc(NC(=O)c2ccc(CN3CCN(C)CC3)cc2)cc1Nc1nccc(-c2cccnc2)n1 | 20.9 | 23.5 | 469 | 484 | – |
| CN1CCN(c2ncc(-c3cc(Cl)cc(Cl)c3Cl)c(N)n2)CC1 | 11.8 | 14.8 | 487 | 405 | – |
| CCN1C(=O)N\2CC3=CC(=CC(=C3[C@@H](C)\C=C2C14CCN(CC4)CC5=CC(=CC(=C5)C)C)OC)OC | 18.6 | 37.2 | 514 | 426 | – |

| SMILES | AC50 viability (NCI-H295R [1]) [µM] | AC50 viability (CU-ACC1 [2]) [µM] | area under concentration-response curve (NCI-H295R [3]) | area under concentration-response curve (CU-ACC1 [4]) | area under concentration-response curve (CU-ACC2) |
| --- | --- | --- | --- | --- | --- |
| CN1CCN(C2CCN(C(=O)Nc3cc(Oc4ccc(NC(=O)C5(C(=O)Nc6ccc(F)cc6)CC5)c(F)c4)ccn3)CC2)CC1 | 20.9 | 29.5 | 453 | 392 | – |
| CC(C)C[C@H](NC(=O)c1cc2ccccc2s1)C(=O)N1CCN(C(=O)[C@H](CO)N[S+](=O)([O-])c2ccc(Cl)cc2Cl)CC1 | 18.6 | 16.6 | 494 | 445 | – |
| CNC(=O)c1cc(Oc2ccc3nc(N[C@@H]4CCCC[C@H]4O)sc3c2)ccn1 | – | 20.9 | 548 | 481 | 583 |
| CC(C)n1cnc2c(NCCCCCCNC(=O)OC(C)(C)C)nc(NCCO)nc21 | 23.5 | 16.6 | 481 | 414 | – |
| Cc1c(CN2CCN(C(=O)[C@H](C)O)CC2)sc2c(N3CCOCC3)nc(-c3cnc(N)nc3)nc12 | 2.09 | 0.0295 | 210 | 215 | – |
| Cc1c(CN2CCC(Nc3ncnc4sc(CC(F)(F)F)cc34)CC2)ccc2c1cc(C#N)n2Cc1cn[nH]c1 | – | 3.32 | 453 | 411 | 540 |
| Clc1cc(Cl)cc(CNc2ncncc2-c2ccc3c(c2)OCO3)c1 | 13.2 | 14.8 | 430 | 412 | – |
| CN[C@@H]1C[C@H]2O[C@@](C)([C@@H]1OC)n1c3ccccc3c3c4c(c5c6ccccc6n2c5c31)C(=O)NC4 | – | 0.833 | 346 | 385 | 359 |
| CC(=O)[C@]1(N)Cc2c(O)c3c(c(O)c2[C@@H](O[C@H]2C[C@H](O)[C@H](O)CO2)C1)C(=O)c1ccccc1C3=O | – | 16.6 | 534 | 474 | 487 |
| Cc1[nH]c2ccc(F)cc2c1-c1nc2c3cccnc3c3ncccc3c2[nH]1 | – | 1.52 | 424 | 326 | 498 |
| COCc1c(-c2ccc(NC(=O)Nc3cc(C(F)(F)F)ccc3F)c(F)c2)c2c(N)ncnn2c1CN1CCOCC1 | 6.61 | 8.33 | 363 | 342 | – |
| CC(=O)C\1=C(/C)C2=CN=C(NC3=CC=C(C=N3)N4CCNCC4)N=C2N(C5CCCC5)C1=O | 26.3 | 16.6 | 487 | 461 | – |
| O=C(Nc1ccccc1Br)N[C@@H]1CCN(c2ccc(C(F)(F)F)cn2)C1 | – | 20.9 | 539 | 477 | 575 |
| Cc1cc(OCCC[S+](C)(=O)[O-])cc(C)c1-c1cccc(COc2ccc3c(c2)OC[C@H]3CC(=O)O)c1 | – | 20.9 | 491 | 425 | 528 |
| Fc1ccc(CNc2ncnc3ccc(F)cc23)cc1 | – | 2.35 | 509 | 415 | 577 |
| CC(C)C(=O)Nc1ncc(-c2cc(C(F)F)nn2-c2c(Cl)cccc2Cl)s1 | 23.5 | 23.5 | 507 | 472 | – |
